Calls of active or inactive are those of the source. The rule behind the calls is not given here.
Columns and labels:
[1] = Antiproliferative activity against human HAF cells assessed as inhibition of cell viability measured after 72 hrs by MTS assay; assay type: toxicity, cell-based
[2] = tested on: RPMI-8226; experiment: Antiproliferative activity against human RPMI-8226 cells assessed as inhibition of cell viability measured after 72 hrs by MTS assay; assay type: functional, cell-based; conditions: RPMI-8226, 72 h
[3] = tested on: NCI-H929; experiment: Antitumor activity against human NCI-H929 cells xenografted in Balb/C nude mouse model assessed as inhibition of inhibition of cyclin D1 expression at 25 mg/kg by Western blot analysis; assay type: functional, organism-based
[4] = Toxicity in Balb/C nude mouse assessed as side effects at 25 mg/kg administered once daily and measured every three days for 34 days by H and E staining based analysis; assay type: organism-based; conditions: in vivo, 816 h, time 34 day
[5] = Antiproliferative activity against human HaCaT cells assessed as inhibition of cell viability measured after 72 hrs by MTS assay; assay type: toxicity, cell-based
[6] = Antiproliferative activity against human MM1.R cells assessed as inhibition of cell viability measured after 72 hrs by MTS assay; assay type: functional, cell-based; conditions: MM.1R
[7] = tested on: NCI-H929; experiment: Antiproliferative activity against human NCI-H929 cells assessed as inhibition of cell viability measured after 72 hrs by MTS assay; assay type: functional, cell-based; conditions: NCI-H929, 72 h
[8] = tested on: NCI-H929; experiment: Antitumor activity against human NCI-H929 cells xenografted in Balb/C nude mouse model assessed as inhibition of Akt phosphorylation level at 25 mg/kg by Western blot analysis; assay type: functional, organism-based
[9] = biological target: T1, Interferon regulatory factor 4 (Homo sapiens, UniProt Q15306); experiment: Inhibition of IRF4 (unknown origin) incubated for 1 hr by fluorescence polarization assay
T1 sequence (Q15306 whole entry): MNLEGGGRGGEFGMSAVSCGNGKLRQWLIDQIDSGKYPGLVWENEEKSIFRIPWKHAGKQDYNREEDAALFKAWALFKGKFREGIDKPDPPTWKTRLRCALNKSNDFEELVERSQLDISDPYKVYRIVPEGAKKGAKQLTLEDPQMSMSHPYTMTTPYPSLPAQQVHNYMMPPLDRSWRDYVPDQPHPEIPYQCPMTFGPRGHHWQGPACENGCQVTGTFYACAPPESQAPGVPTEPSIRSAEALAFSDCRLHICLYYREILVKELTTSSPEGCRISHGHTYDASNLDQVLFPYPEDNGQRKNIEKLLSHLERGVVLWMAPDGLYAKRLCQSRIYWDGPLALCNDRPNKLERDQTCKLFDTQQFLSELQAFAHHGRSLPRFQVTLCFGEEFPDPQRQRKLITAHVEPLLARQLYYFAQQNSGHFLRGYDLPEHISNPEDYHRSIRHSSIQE

[10] = tested on: NCI-H929; experiment: Antitumor activity against human NCI-H929 cells xenografted in Balb/C nude mouse model assessed as inhibition of ERK phosphorylation level at 25 mg/kg by Western blot analysis; assay type: functional, organism-based
[11] = tested on: NCI-H929; experiment: Antitumor activity against human NCI-H929 cells xenografted in Balb/C nude mouse model assessed as reduction in Ki67 expression at 25 mg/kg by immunohistochemical staining based analysis; assay type: functional, organism-based
[12] = Toxicity in Balb/C nude mouse assessed as changes in main organ at 25 mg/kg administered once daily and measured every three days for 34 days by H and E staining based analysis; assay type: organism-based; conditions: in vivo, 816 h, time 34 day
[13] = tested on: NCI-H929; experiment: Antitumor activity against human NCI-H929 cells xenografted in Balb/C nude mouse model assessed as increase in gammaH2AX expression at 25 mg/kg by Western blot analysis; assay type: functional, organism-based
[14] = Toxicity in Balb/C nude mouse assessed as change in body weight at 25 mg/kg administered once daily and measured every three days for 34 days; assay type: organism-based; conditions: in vivo, 816 h, time 34 day
[15] = tested on: NCI-H929; experiment: Antitumor activity against human NCI-H929 cells xenografted in Balb/C nude mouse model assessed as inhibition of […] expression at 25 mg/kg by Western blot analysis; assay type: functional, organism-based
[16] = Selectivity ratio IC50 for human RPMI-8226 cells to IC50 for human MM1.R cells; assay type: toxicity
[17] = Selectivity ratio IC50 for human RPMI-8226 cells to IC50 for human NCI-H929 cells; assay type: toxicity

IC50 [2]	IC50 [7]	IC50 [9]	SMILES	IC50 at 72 h [1]	Activity [3]	Activity [4]	IC50 at 72 h [5]	IC50 [6]	Activity [8]	Activity [10]	Activity [11]	Activity [12]	Activity [13]	Activity [14]	Activity [15]	Ratio IC50 [16]	Ratio IC50 [17]
50.2 µM	2.39 µM	> 20 µM	Nc1cccc2c1CN(C1CCC(=O)NC1=O)C2=O (stereo unspecified) [LENALIDOMIDE]	> 100 µM	Active	Non-toxic	> 100 µM	4.52 µM	Active	Active	inactive	Non-toxic	Active	Non-toxic	Active		
4.25 µM	2.63 µM	13.5 µM	C[C@H](C(=O)O)[C@H]1CC[C@H]2[C@@H]3C(=O)C=C4C(C)(C)C(=O)C(C#N)=C[C@]4(C)[C@H]3CC[C@]12C	> 100 µM			> 100 µM	3.16 µM								1.2	1.6
0.26 µM	0.22 µM	3.65 µM	Cc1ccc(NC(=O)[C@@H](C)[C@H]2CC[C@H]3[C@@H]4C(=O)C=C5C(C)(C)C(=O)C(C#N)=C[C@]5(C)[C@H]4CC[C@]23C)cc1	> 100 µM			> 100 µM	0.27 µM								1	1.2

Source: ChEMBL document CHEMBL6121019, “Design, synthesis and biological evaluation of bisnoralcohol derivatives as novel IRF4 inhibitors for the treatment of multiple myeloma” (Eur J Med Chem, 2025)
